Data as given in US20210228549A1 (Biohaven Therapeutics Ltd., priority 2015, published 2021).
Read-outs that look alike come from different tables or passages of the source.

Columns and labels:
[1] = PK in fasted male Sprague Dawley rats, IV administration of prodrug; type: in vivo
Description: (§1) Blood samples were collected at pre-determined time points including a 0 h time point and usually between 7 and 8 additional time points not exceeding a 24 h period.
(§2) Plasma samples were extracted and analyzed using the methods described in Plasma Sample Extraction and Analysis. All data are expressed as ng/mL of the free base. Samples that were below the limit of quantification (0.5 ng/mL) were not used in the calculation of averages.
Pharmacokinetic parameters were calculated from the time course of the plasma concentrations. Pharmacokinetic parameters were determined with Phoenix Winnonlin (v6.3) software using a non-compartmental model. The maximum plasma concentration (Cmax) and time to the maximum plasma concentration (Tmax) of the compound of the disclosure were observed from the data. The area under the concentration-time curve (AUC) of the compound of the disclosure was calculated using the trapezoidal formula with calculation to the last quantifiable data point, and to infinity if applicable. Plasma half-life (t1/2) was calculated from 0.693/slope of the terminal elimination phase. Mean residence time, MRT, was calculated by dividing the area under the moment curve (AUMC) by the AUC. Any samples below the limit of quantitation (0.5 ng/mL) were treated as zero for pharmacokinetic data analysis. […]

[2] = PK in fasted male Sprague Dawley rats, PO administration of prodrug; type: in vivo; conditions: for Prodrug AUGlast, Mean: PO 5 mg/kg
Description: as §1, §2
Pharmacokinetic parameters were calculated from the time course of the plasma concentrations. Pharmacokinetic parameters were determined with Phoenix Winnonlin (v6.3) software using a non-compartmental model. The maximum plasma concentration (Cmax) and time to the maximum plasma concentration (Tmax) of the compound of the disclosure were observed from the data. The area under the concentration-time curve (AUC) of the compound of the disclosure was calculated using the trapezoidal formula with calculation to the last quantifiable data point, and to infinity if applicable. Plasma half-life (t1/2) was calculated from 0.693/slope of the terminal elimination phase. Mean residence time, MRT, was calculated by dividing the area under the moment curve (AUMC) by the AUC. Any samples below the limit of quantitation (0.5 ng/mL) were treated as zero for pharmacokinetic data analysis.
Plasma Sample Extraction and Analysis: Analytical stock solutions (1.00 mg/mL of the free compound of the disclosure) were prepared in DMSO. Standards were prepared in diluted matrix containing 1 part 10% formic acid and 9 parts Sprague-Dawley rat plasma containing sodium heparin as the anticoagulant (pre-diluted with 1 part of 0.5M citric acid and 9 parts whole blood). Working solutions were prepared in 50:50 acetonitrile:water. Working solutions were then added to plasma to make calibration standards to final concentrations of 1000, 500, 100, 50, 10, 5, 1, and 0.5 ng/mL. Standards contained both the test article and riluzole. Standards were treated identically to the study samples.
Sample Extraction: Plasma samples were extracted via acetonitrile precipitation on a Tomtec Quadra 96-Model 320 liquid handling system in a 96-well plate format.

Melanoma C8161 cells = assay: Inhibition of human melanoma cell xenograft growth; type: in vivo; conditions: C8161 xenograft in nude mice, P<0.01
Description: Mice were treated every day for 21 days, and tumor sizes were measured twice weekly with a Vernier caliper.

[3] = tested on: patients diagnosed with Alzheimer's disease of mild-to-moderate severity; conditions: for CDR01-Sum of Boxes, Model Estimates, Difference LSMean (SE) / ADAS-Cog Total Score, Model Estimates, Difference LSMean (SE) / Hippocampal Volume Change, Model Estimates, Difference LSMean (SE): placebo vs troriluzole; for Hippocampal Volume Change, Model Estimates, LSMean (SE) / Hippocampal Volume Change, Model Estimates, Difference LSMean (SE) / Hippocampal Volume Change, Analysis Value, Mean (SD) / Hippocampal Volume Change, Analysis Value, Median: volumetric MRI;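 on all read-outs here: multicenter parallel-group study, AD severity graded by Mini-Mental State Examination score (mild 20–24, moderate 14–19)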
Description: This is a phase 2 multi-center, randomized, double blind, placebo-controlled, parallel group study in patients with mild to moderate Alzheimer's disease.
Participants will be randomized to one of two groups: 280 mg of BHV-4157 or placebo. […] Treatment duration is 48 weeks (12 months). There is a screening period of up to 42 days and a 4-week post-treatment observation period.
The CDR-SOB (Hughes, Berg, Danziger, Coben, & Martin, 1982) is a validated composite rating of cognition and everyday functioning used in longitudinal AD research which incorporates both informant input and direct assessment of performance. It assesses through semi structured interview 3 cognitive domains including memory, orientation, and judgement/problem solving and 3 everyday functional domains including community affairs, home and hobbies and personal care. There are 5 levels of impairment from none CDR=0 to severe CDR=3. The individual domain scores are added to create a sum of the box scores.

[4] = tested on: patients with Stage III and IV melanoma; conditions: after only 14 days of treatment, cited from earlier work
[5] = fasted male Sprague Dawley rats, prodrug in plasma
[6] = Mild AD Patients Only, Week 48, troriluzole 280 mg once daily, N 62
[7] = Mild AD Patients Only, Week 48, troriluzole 280 mg once daily, N 65
[8] = mild-to-moderate AD, Week 48, troriluzole 280 mg once daily, N 118
[9] = mild-to-moderate AD, Week 48, troriluzole 280 mg once daily, N 119
[10] = Mild AD Patients Only, Week 48, troriluzole 280 mg once daily, N 48
[11] = mild-to-moderate AD, Week 48, troriluzole 280 mg once daily, N 87

In the case of `CN(CC(=O)Nc1nc2ccc(OC(F)(F)F)cc2s1)C(=O)CNC(C)(C)C` [Example 125, 2-(tert-butylamino)-N-methyl-N-(2-oxo-2-((6-(trifluoromethoxy)benzo[d]thiazol-2-yl)amino)ethyl)acetamide], the “Half life on conversion to Riluzole” value [1] is reported as “moderate to long half life”, the bioavailability ([2]; rat, plasma, fasted male Sprague Dawley rats, PO 14 mg/kg, prodrug, read-out: Example 125 % F (bioavailability)) is reported as 26% and the AUC(0-inf) ([2]; rat, fasted male Sprague Dawley rats, PO 14 mg/kg, prodrug in plasma, read-out: Example 125 AUCinf, Mean) is reported as 2290 ng·h/mL. It also gave an AUC(0-t) ([2]; rat, fasted male Sprague Dawley rats, PO 14 mg/kg, prodrug in plasma, read-out: Example 125 AUClast, Mean) of 2260 ng·h/mL, a Cmax ([2]; rat, fasted male Sprague Dawley rats, PO 14 mg/kg, prodrug in plasma, read-out: Example 125 Cmax, Mean) of 213 ng/mL and a half-life ([2]; rat, fasted male Sprague Dawley rats, PO 14 mg/kg, prodrug in plasma, read-out: Example 125 t1/2, Mean (converted)) of 3.8 h. The Tmax ([2]; rat, fasted male Sprague Dawley rats, PO 14 mg/kg, prodrug in plasma, read-out: Example 125 tmax, Mean) was 1.8 h, the “Half life on conversion to Riluzole” value ([2]; rats, oral administration) was “long half life” and the “Oral bioavailability on conversion to Riluzole” value ([2]; rats, oral administration) was “high oral bioavailability”. For the same compound, the “Tumor volume vs untreated or vehicle-treated controls” value (Melanoma C8161 cells; 4.9 mg/kg (threefold lower in molar terms) p.o. gavage every day for 21 days) was “significant reduction in tumor volume” and the “Tumor volume vs untreated or vehicle-treated controls” value (Melanoma C8161 cells; 14.6 mg/kg (equimolar to riluzole) p.o. gavage every day for 21 days) was “significant reduction in tumor volume”.
In the case of `CN(CC(=O)Nc1nc2ccc(OC(F)(F)F)cc2s1)C(=O)CNC(=O)CN` [Example 204, 2-Amino-N-{[methyl({[6-(trifluoromethoxy)-1,3-benzothiazol-2-yl]carbamoyl}methyl)carbamoyl]methyl}acetamide], the “Prodrug AUGlast, Mean” value [2, 5] is reported as 0.90 ng·h/mL, the Safety and tolerability ([3]; 280 mg once daily, safety profile consistent with previous studies) is reported as “relatively well tolerated” and the “CDR01-Sum of Boxes, Model Estimates, LSMean (SE)” value ([3]; Mild AD Patients Only, Week 48, change from baseline, 95% CI (1.1, 2.2)) is reported as 1.7 (0.29). For the same compound, the “ADAS-Cog Total Score, Model Estimates, LSMean (SE)” value ([3]; Mild AD Patients Only, Week 48, change from baseline, 95% CI (2.7, 5.7)) was 4.2 (0.76), the “CDR01-Sum of Boxes, Model Estimates, Difference LSMean (SE)” value ([3]; Mild AD Patients Only, Week 48, 95% CI (−1.1, 0.5), P-Value 0.4347) was −0.3 (0.40) and the “ADAS-Cog Total Score, Model Estimates, Difference LSMean (SE)” value ([3]; Mild AD Patients Only, Week 48, 95% CI (−1.4, 2.7)) was 0.7 (1.02). For the same compound, the “CDR01-Sum of Boxes, Analysis Value, Mean (SD)” value [3, 6] was 7.1 (2.79), the “CDR01-Sum of Boxes, Analysis Value, Median” value [3, 6] was 6.5 and the “CDR01-Sum of Boxes, Change from Baseline, Mean (SD)” value [3, 6] was 1.4 (2.06). For the same compound, the “CDR01-Sum of Boxes, Change from Baseline, Median” value [3, 6] was 1.0, the “ADAS-Cog Total Score, Analysis Value, Mean (SD)” value [3, 7] was 26.2 (8.22) and the “ADAS-Cog Total Score, Analysis Value, Median” value [3, 7] was 26.0. The “ADAS-Cog Total Score, Change from Baseline, Mean (SD)” value [3, 7] was 3.9 (5.90), the “ADAS-Cog Total Score, Change from Baseline, Median” value [3, 7] was 4.0 and the NPI across subgroups ([3]; Week 48, only mild AD, only moderate AD, only ApoE4 positive, only ApoE4 negative patients) was “numerical differences of a potential benefit”. The “ADAS-Cog11 score, difference placebo vs troriluzole” value ([3]; mild AD, after 48 weeks, 95% CI −1.4, 2.7, p-value=0.5233) was 0.7, the “LS mean percent deformation change from baseline hippocampal volume” value ([3]; mild AD, after 48 weeks, n=48, 95% CI −1.6, −0.6, placebo −1.6%) was −1.1% and the “LS mean change from baseline on the NPI score” value ([3]; mild AD, after 48 weeks, n=62, placebo 4.2 points) was 2.1 points. For the same compound, the “LS mean change from baseline on the ADAS-Cog11 score” value ([3]; mild AD, after 48 weeks, n=65, 95% CI 2.7, 5.7, placebo 4.9 points) was 4.2 points, the “CDR01-Sum of Boxes, Model Estimates, LSMean (SE)” value ([3]; mild-to-moderate AD, Week 48, change from baseline, 95% CI (1.7, 2.5)) was 2.1 (0.21) and the “CDR01-Sum of Boxes, Model Estimates, Difference LSMean (SE)” value ([3]; mild-to-moderate AD, Week 48, 95% CI (−0.8, 0.3), P-Value 0.4474) was −0.2 (0.28). For the same compound, the “ADAS-Cog Total Score, Model Estimates, Difference LSMean (SE)” value ([3]; mild-to-moderate AD, Week 48, 95% CI (−1.8, 1.8), P-Value 0.9809) was 0.0 (0.93), the “CDR01-Sum of Boxes, Analysis Value, Mean (SD)” value [3, 8] was 8.3 (3.24) and the “CDR01-Sum of Boxes, Analysis Value, Median” value [3, 8] was 8.0. For the same compound, the “CDR01-Sum of Boxes, Change from Baseline, Mean (SD)” value [3, 8] was 1.9 (2.37), the “CDR01-Sum of Boxes, Change from Baseline, Median” value [3, 8] was 2.0 and the “ADAS-Cog Total Score, Analysis Value, Mean (SD)” value [3, 9] was 31.5 (10.82). For the same compound, the “ADAS-Cog Total Score, Analysis Value, Median” value [3, 9] was 30.0, the “ADAS-Cog Total Score, Charge from Baseline, Mean (SD)” value [3, 9] was 0.8 (7.40) and the “ADAS-Cog Total Score, Charge from Baseline, Median” value [3, 9] was 0.0. The “NPI score, difference troriluzole vs placebo” value ([3]; mild-to-moderate AD, after 48 weeks, 95% CI −4.08, 1.10, p-value=0.258) was −1.5, the “LS mean change from baseline on the NPI score” value ([3]; mild-to-moderate AD, after 48 weeks, n=120, placebo 3.8 points) was 2.3 points and the “Hippocampal Volume Change, Model Estimates, LSMean (SE)” value ([3]; Mild AD Patients Only, Week 48, 95% CI (−1.6, −0.6)) was −1.1 (0.27). The “Hippocampal Volume Change, Model Estimates, Difference LSMean (SE)” value ([3]; Mild AD Patients Only, Week 48, 95% CI (−1.2, 0.3), P-Value 0.2240) was −0.5 (0.38), the “Hippocampal Volume Change, Analysis Value, Mean (SD)” value [3, 10] was −1.1 (1.61) and the “Hippocampal Volume Change, Analysis Value, Median” value [3, 10] was −0.9. For the same compound, the “Hippocampal Volume Change, Model Estimates, LSMean (SE)” value ([3]; mild-to-moderate AD, Week 48, 95% CI (−1.4, −0.7)) was −1.1 (0.18), the “Hippocampal Volume Change, Model Estimates, Difference LSMean (SE)” value ([3]; mild-to-moderate AD, Week 48, 95% CI (−0.6, 0.5), P-Value 0.8670) was 0.0 (0.26) and the “Hippocampal Volume Change, Analysis Value, Mean (SD)” value [3, 11] was −1.1 (1.50). For the same compound, the “Hippocampal Volume Change, Analysis Value, Median” value [3, 11] was −0.9.
In the case of `CN(CC(=O)Nc1nc2ccc(OC(F)(F)F)cc2s1)C(=O)CNC1CCNCC1` [Example 216, N-methyl-2-[(piperidin-4-yl)amino]-N-({[6-(trifluoromethoxy)-1,3-benzothiazol-2-yl]carbamoyl}methyl)acetamide], the “Prodrug AUGlast, Mean” value [2, 5] is reported as 16.6 ng·h/mL.
In the case of `Nc1nc2ccc(OC(F)(F)F)cc2s1` [riluzole], the “Patients with clinical or radiologic evidence of tumor response” value ([4]; listed as Riluzole) is listed as “four of 12” and the “Patients with clinical or radiologic evidence of tumor response” value [4] is listed as “four of twelve”.
